pIC50: −log10 of the molar value.
Test system: 941728-121-R-J1-PDC complex spheroid viability
Experiment: Anticancer human tumor 941728-121-R-J1-PDC patient-derived lung adenocarcinoma cell line growth inhibition [RAS]
Settings: for pIC50: curve of first compound; for viability, T/C: stronger effect = lower value
In short: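 Tumour cells grown as complex spheroids with HUVEC endothelial cells and mesenchymal stem cells, treated with RAS pathway inhibitor combinations. Each agent spans half-log steps from near clinical Cmax, or 10 microM where Cmax is unknown.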

[1] = second compound 0.00316 µM, first compound 0.000949 µM
[2] = second compound 0.00316 µM, first compound 0.003 µM
[3] = second compound 0.00316 µM, first compound 0.00949 µM
[4] = second compound 0.00316 µM, first compound 0.03 µM
[5] = second compound 0.00316 µM, first compound 0.0949 µM
[6] = second compound 0.00316 µM, first compound 0.3 µM
[7] = second compound 0.01 µM, first compound 0.000949 µM
[8] = second compound 0.01 µM, first compound 0.003 µM
[9] = second compound 0.01 µM, first compound 0.00949 µM
[10] = second compound 0.01 µM, first compound 0.03 µM
[11] = second compound 0.01 µM, first compound 0.0949 µM
[12] = second compound 0.01 µM, first compound 0.3 µM
[13] = second compound 0.0316 µM, first compound 0.000949 µM
[14] = second compound 0.0316 µM, first compound 0.003 µM
[15] = second compound 0.0316 µM, first compound 0.00949 µM
[16] = second compound 0.0316 µM, first compound 0.03 µM
[17] = second compound 0.0316 µM, first compound 0.0949 µM
[18] = second compound 0.0316 µM, first compound 0.3 µM
[19] = second compound 0.1 µM, first compound 0.000949 µM
[20] = second compound 0.1 µM, first compound 0.003 µM
[21] = second compound 0.1 µM, first compound 0.00949 µM
[22] = second compound 0.1 µM, first compound 0.03 µM
[23] = second compound 0.1 µM, first compound 0.0949 µM
[24] = second compound 0.1 µM, first compound 0.3 µM
[25] = second compound 0.316 µM, first compound 0.000949 µM
[26] = second compound 0.316 µM, first compound 0.003 µM
[27] = second compound 0.316 µM, first compound 0.00949 µM
[28] = second compound 0.316 µM, first compound 0.03 µM
[29] = second compound 0.316 µM, first compound 0.0949 µM
[30] = second compound 0.316 µM, first compound 0.3 µM
[31] = second compound 1 µM, first compound 0.000949 µM
[32] = second compound 1 µM, first compound 0.003 µM
[33] = second compound 1 µM, first compound 0.00949 µM
[34] = second compound 1 µM, first compound 0.03 µM
[35] = second compound 1 µM, first compound 0.0949 µM
[36] = second compound 1 µM, first compound 0.3 µM
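Note: spheroids exposed to compounds for 7 days before readout.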
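Throughout, for viability, T/C: 100% = DMSO vehicle control viability.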

CC(=O)OC12COC1CC(O)C1(C)C(=O)C(O)C3=C(C)C(OC(=O)C(O)C(NC(=O)OC(C)(C)C)c4ccccc4)CC(O)(C(OC(=O)c4ccccc4)C21)C3(C)C (stereo unspecified) + C=CC(=O)N1CCN(c2nc(OCC3CCCN3C)nc3c(F)c(-c4nc(N)cc(C)c4C(F)(F)F)c(Cl)cc23)C(C)C1
pIC50 (second compound 0.00316 µM): > 7.50
pIC50 (second compound 0.01 µM): > 7.50
pIC50 (second compound 0.0316 µM): > 7.50
pIC50 (second compound 0.1 µM): > 7.50
pIC50 (second compound 0.316 µM): > 7.50
pIC50 (second compound 1 µM): > 7.50
viability, T/C (second compound 0.00316 µM, first compound 0.0316 µM): 15.8%
viability, T/C (second compound 0.00316 µM, first compound 0.1 µM): 13.3%
viability, T/C (second compound 0.00316 µM, first compound 0.316 µM): 13.2%
viability, T/C (second compound 0.00316 µM, first compound 1 µM): 12.3%
viability, T/C (second compound 0.00316 µM, first compound 3.16 µM): 13.6%
viability, T/C (second compound 0.00316 µM, first compound 10 µM): 20.4%
viability, T/C (second compound 0.01 µM, first compound 0.0316 µM): 15.8%
viability, T/C (second compound 0.01 µM, first compound 0.1 µM): 10.3%
viability, T/C (second compound 0.01 µM, first compound 0.316 µM): 12.7%
viability, T/C (second compound 0.01 µM, first compound 1 µM): 12.2%
viability, T/C (second compound 0.01 µM, first compound 3.16 µM): 12.1%
viability, T/C (second compound 0.01 µM, first compound 10 µM): 12.1%
viability, T/C (second compound 0.0316 µM, first compound 0.0316 µM): 14.4%
viability, T/C (second compound 0.0316 µM, first compound 0.1 µM): 14.1%
viability, T/C (second compound 0.0316 µM, first compound 0.316 µM): 11%
viability, T/C (second compound 0.0316 µM, first compound 1 µM): 12.8%
viability, T/C (second compound 0.0316 µM, first compound 3.16 µM): 13.1%
viability, T/C (second compound 0.0316 µM, first compound 10 µM): 12.2%
viability, T/C (second compound 0.1 µM, first compound 0.0316 µM): 14.1%
viability, T/C (second compound 0.1 µM, first compound 0.1 µM): 15.6%
viability, T/C (second compound 0.1 µM, first compound 0.316 µM): 12%
viability, T/C (second compound 0.1 µM, first compound 1 µM): 13.8%
viability, T/C (second compound 0.1 µM, first compound 3.16 µM): 13.8%
viability, T/C (second compound 0.1 µM, first compound 10 µM): 12.6%
viability, T/C (second compound 0.316 µM, first compound 0.0316 µM): 13.5%
viability, T/C (second compound 0.316 µM, first compound 0.1 µM): 13%
viability, T/C (second compound 0.316 µM, first compound 0.316 µM): 14.1%
viability, T/C (second compound 0.316 µM, first compound 1 µM): 13.8%
viability, T/C (second compound 0.316 µM, first compound 3.16 µM): 13.1%
viability, T/C (second compound 0.316 µM, first compound 10 µM): 16.2%
viability, T/C (second compound 1 µM, first compound 0.0316 µM): 14.7%
viability, T/C (second compound 1 µM, first compound 0.1 µM): 13.5%
viability, T/C (second compound 1 µM, first compound 0.316 µM): 12.6%
viability, T/C (second compound 1 µM, first compound 1 µM): 14.6%
viability, T/C (second compound 1 µM, first compound 3.16 µM): 14%
viability, T/C (second compound 1 µM, first compound 10 µM): 14.5%

CC1(C)CCC(Nc2ncc(C(F)(F)F)c(-c3c[nH]c4c(P(C)(C)=O)c(C#N)ccc34)n2)CN1 (stereo unspecified) + C=CC(=O)N1CCN(c2nc(OCC3CCCN3C)nc3c(F)c(-c4nc(N)cc(C)c4C(F)(F)F)c(Cl)cc23)C(C)C1
pIC50 (second compound 0.00316 µM): > 9.02
pIC50 (second compound 0.01 µM): > 9.02
pIC50 (second compound 0.0316 µM): > 9.02
pIC50 (second compound 0.1 µM): > 9.02
pIC50 (second compound 0.316 µM): > 9.02
pIC50 (second compound 1 µM): > 9.02
viability, T/C [1]: 17.1%
viability, T/C [2]: 18.1%
viability, T/C [3]: 19.7%
viability, T/C [4]: 19%
viability, T/C [5]: 20.5%
viability, T/C [6]: 20.9%
viability, T/C [7]: 18.9%
viability, T/C [8]: 16.2%
viability, T/C [9]: 17.9%
viability, T/C [10]: 17.8%
viability, T/C [11]: 17.9%
viability, T/C [12]: 16.8%
viability, T/C [13]: 14.8%
viability, T/C [14]: 16.8%
viability, T/C [15]: 17.8%
viability, T/C [16]: 17.6%
viability, T/C [17]: 17.7%
viability, T/C [18]: 17.7%
viability, T/C [19]: 15.4%
viability, T/C [20]: 16.9%
viability, T/C [21]: 17%
viability, T/C [22]: 17.2%
viability, T/C [23]: 17.8%
viability, T/C [24]: 19.1%
viability, T/C [25]: 15.3%
viability, T/C [26]: 15.8%
viability, T/C [27]: 15.8%
viability, T/C [28]: 17.7%
viability, T/C [29]: 19.3%
viability, T/C [30]: 18.1%
viability, T/C [31]: 16.6%
viability, T/C [32]: 16.6%
viability, T/C [33]: 18.8%
viability, T/C [34]: 19.3%
viability, T/C [35]: 18.6%
viability, T/C [36]: 21%

CCc1c2c(nc3ccc(O)cc13)-c1cc3c(c(=O)n1C2)COC(=O)[C@]3(O)CC + C=CC(=O)N1CCN(c2nc(OCC3CCCN3C)nc3c(F)c(-c4nc(N)cc(C)c4C(F)(F)F)c(Cl)cc23)C(C)C1
pIC50 (second compound 0.00316 µM): > 9.02
pIC50 (second compound 0.01 µM): > 9.02
pIC50 (second compound 0.0316 µM): > 9.02
pIC50 (second compound 0.1 µM): > 9.02
pIC50 (second compound 0.316 µM): > 9.02
pIC50 (second compound 1 µM): > 9.02
viability, T/C [1]: 21.6%
viability, T/C [2]: 18.7%
viability, T/C [3]: 14.7%
viability, T/C [4]: 13.7%
viability, T/C [5]: 12.1%
viability, T/C [6]: 8.13%
viability, T/C [7]: 18.9%
viability, T/C [8]: 15.6%
viability, T/C [9]: 20.6%
viability, T/C [10]: 13.1%
viability, T/C [11]: 11.4%
viability, T/C [12]: 7.95%
viability, T/C [13]: 18.3%
viability, T/C [14]: 16.5%
viability, T/C [15]: 13.8%
viability, T/C [16]: 15.1%
viability, T/C [17]: 11.7%
viability, T/C [18]: 7.67%
viability, T/C [19]: 16.3%
viability, T/C [20]: 17%
viability, T/C [21]: 15.1%
viability, T/C [22]: 12.6%
viability, T/C [23]: 12.4%
viability, T/C [24]: 8.11%
viability, T/C [25]: 18.3%
viability, T/C [26]: 15.8%
viability, T/C [27]: 13.7%
viability, T/C [28]: 12.2%
viability, T/C [29]: 11.7%
viability, T/C [30]: 6.82%
viability, T/C [31]: 17.1%
viability, T/C [32]: 15.4%
viability, T/C [33]: 13.8%
viability, T/C [34]: 13.7%
viability, T/C [35]: 14.8%
viability, T/C [36]: 7.83%

— PubChem BioAssay AID2060896 (Molecular Pharmacology Branch, DTP, NCI, 2025)
